Assay results reported in patent publication US5624668A (Luitpold Pharmaceuticals, Inc., priority 1995, dated 1997).

Key:
[1] = tested on: hemoglobin or ferritin-related stores; settings: given in early stage of iron deficiency (ferritin below 100 ug/L or transferrin saturation below 20%)
[2] = tested on: hemoglobin or ferritin-related stores; settings: cited from earlier work

In the case of iron dextran, the hemoglobin response [1] is listed as “without a concomitant increase in hemoglobin”, the serum ferritin response [1] is listed as “rise in serum ferritin” and the “quantitative iron utilization for hemoglobin or ferritin-related stores” value ([2]; dialysis-associated anemia, within the first 90 days after infusion, previous retrospective analysis) is listed as “highly variable and incomplete within the first 90 days”. For the same substance, the “recovery of iron for hemoglobin synthesis or iron stores” value ([2]; iron deficiency anemia and normal renal function, early after intravenous infusion) was “incomplete”.
